Details of series [1]: method as in PMID 18537837. Particulars: endocyclic amine; cited from earlier work.
In series [2] the target is T1, GUS activity in live E. coli cells (Escherichia coli, UniProt P05804).
T1 construct: endogenous in cells
Put plainly: GUS activity in live E. coli cells. Particulars: E. coli cells (OD600 = 1.89) treated for 30 min, then GUS activity measured. In kind it is cell-based. As to the method:
To examine if inhibitors 2–4 could inhibit GUS activity in vivo, E. coli cells (OD600 = 1.89) were treated with each of 2–4 for 30 min, after which GUS activity was measured. […]; 3, 18.6 nM; and 4, 3.69 nM (Supplementary Fig. 9a). […]. […] Additionally, to evaluate cell viability, E. coli cultures were treated with ampicillin (positive control), DMSO, or inhibitors 2–4 (100 μM) for 6 h.
Supplementary Figure 9 Inhibitors 2–4 sho w in hi biti on ag ai n st G US acti vity in l i ve E. co li cell s. (a) GUS activity was measured in live E. coli. Af t e r E. coli were incubated with DMSO or an inhibitor ( 2–4), GUS activity was measured using 4-methylumbelliferyl-β-glucuronide as the substrate. The release of fluorescent 4-methylumbelliferone was detected at 445 nm (excitation, 345 nm). Compared with the negative c ont rol (DMSO ), […]
[…]. (b) Colony formation assay. None of the inhibitors affected bacterial growth. As a negative control, E. coli cells were incubated with ampicillin (100 μg/mL). Results are expressed as the mean of triplicate samples ± SEM.
(1 picture or pasted object on this page, not shown here)

Series [3] relates to intestinal bacterial GUSs. Put plainly: In vivo imaging of GUS activity (FDGiCu probe). Further details: species or system mouse. Particulars: BALB/c mice; oral gavage of inhibitor, then 500 µg FDGiCu intravenously. As to the method: . […] The mice were then sacrificed and the intestines removed. […] In addition, we performed real-time in vivo gastrointestinal inhibition of bacterial GUSs using whole-body in vivo imaging (Fig. 4a and Supplementary Figs. 11, 12). The mice were gavaged in the same manner as described above. Following the final gavage, 500 µg of FDGiCu (fluorescein-di-β-D-glucuronide as a non-fluorescent probe) was injected intravenously. Upon digestion by intestinal bacterial GUSs, FDGiCu is hydrolyzed to produce fluorescein (as the hydrolyzed product) that can be detected as fluorescence in the intestinal region. […]. Mice were treated for 10 days. […]
Mice were given 3 via oral gavage. […] The hydrolysis product (fluorescein) generated in the gut was quantified over a 2 h period by in vivo imaging (excitation 465 nm, emission 520 nm). The maximum fluorescein fluorescence was observed 60 min after injection of vehicle control. At 2 h post injection, most of the FDGiCu has been excreted and thus fluorescence is reduced. The region of interest (ROI) was analyzed with Living Image Software. b Effect of inhibitor 3 to protect against diarrhea caused by CPT-11. Diarrhea severity was scored as described in methods. […] The intensity of hydrolyzed fluorescein was assessed by in vivo imaging system (Caliper Life Sciences) and quantified as GUS activity. […]

The test system of series [4] is H184B5F5/M10 non-cancerous human mammary epithelial cells. Put plainly: In vitro cytotoxicity, [3H]thymidine incorporation, H184B5F5/M10. The format is cell-based. The conditions noted are these: 0.001–100 μM for 24 h. A general note: Incorporation of labelled thymidine or its analogues reports DNA synthesis.
The subject of series [5] is BALB/c mice. Put plainly: In vivo diarrhea test (CPT-11). Also on record: species or system mouse. Particulars: BALB/c mice, 10 days.
Series [6] concerns BALB/c mice. Put plainly: Colon histology (hematoxylin and eosin) after oral gavage. In kind it is in vivo, mouse. The conditions noted are these: female BALB/c mice; oral gavage for 5 days; 3 at 37.5 mg per kg body weight, ASN03273363 at 65 mg.
Series [7] has as its system GM637 non-cancerous human fibroblasts. Nature of the series: In vitro cytotoxicity, [3H]thymidine incorporation, GM637. In kind it is cell-based. The conditions noted are these: GM637 cells; 0.001–100 μM for 24 h.

Entries after “also recorded” stand apart in the source; their conditions may differ.

T1 sequence (P05804 whole entry): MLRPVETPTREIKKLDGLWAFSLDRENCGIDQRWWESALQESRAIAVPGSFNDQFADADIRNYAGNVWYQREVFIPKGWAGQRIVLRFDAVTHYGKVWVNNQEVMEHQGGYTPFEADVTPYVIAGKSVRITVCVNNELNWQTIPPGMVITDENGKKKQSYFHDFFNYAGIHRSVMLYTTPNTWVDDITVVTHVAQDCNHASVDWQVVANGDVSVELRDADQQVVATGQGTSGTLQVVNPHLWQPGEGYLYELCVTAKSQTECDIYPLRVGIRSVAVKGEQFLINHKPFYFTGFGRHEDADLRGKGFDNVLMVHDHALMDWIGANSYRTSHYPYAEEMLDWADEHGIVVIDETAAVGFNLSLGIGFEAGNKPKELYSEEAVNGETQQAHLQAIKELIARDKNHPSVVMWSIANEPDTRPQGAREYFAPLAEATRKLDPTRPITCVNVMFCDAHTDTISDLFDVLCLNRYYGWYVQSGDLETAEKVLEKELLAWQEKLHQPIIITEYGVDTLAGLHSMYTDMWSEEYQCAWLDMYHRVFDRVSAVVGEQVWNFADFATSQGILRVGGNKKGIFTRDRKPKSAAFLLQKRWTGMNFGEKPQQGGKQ

For orientation: pKa means the pH at which an ionisable group is half protonated. Take `O=C(O)[C@H]1CNC[C@@H](O)[C@@H]1O` [Inhibitor 1, Uronic isofagomine]: in series [1], the pKa is reported as 8.0.

The term IC50 denotes the concentration that inhibits the measured activity by half. As for `CCC[C@@H]1NC[C@@H](O)[C@H](O)[C@H]1C(=O)O` [Inhibitor 2, C6-propyl UIFG], in series [1], the pKa is 9.4. Besides, the IC50 in series [2] came to 1.2 µM.

Regarding `CCCCCCCCC[C@@H]1NC[C@@H](O)[C@H](O)[C@H]1C(=O)O` [Inhibitor 4, C6-nonyl UIFG], the IC50 in series [2] amounted to 0.00369 µM.

Turning to `CCCCCC[C@@H]1NC[C@@H](O)[C@H](O)[C@H]1C(=O)O` [Inhibitor 3, C6-hexyl UIFG], in series [3], the “fluorescein fluorescence in the intestinal region (gut bacterial GUS activity)” value was “Reduced fluorescence”. The cytotoxicity result in series [4] and in series [7] was “No cytotoxicity was evident” throughout. The diarrhea entry is “diarrhea was significantly suppressed; also recorded: significantly reduced diarrhea” in the series on BALB/c mice [5] (CPT-11 30 mg per kg daily with inhibitor 3 5.8 µg orally twice per day) and “neither the negative control nor inhibitor 3 caused diarrhea” in the series with BALB/c mice [5] (inhibitor 3 only, 5.8 µg given orally twice per day). The “health of the epithelial layer and intestinal glandular structure (hematoxylin and eosin staining)” value in the series with BALB/c mice [6] was “neither compound affected the health of the epithelial layer or the intestinal glandular structure”. The same molecule had an IC50 in series [2] of 0.0186 µM.

Values taken from article PMC7933434, “Entropy-driven binding of gut bacterial β-glucuronidase inhibitors ameliorates irinotecan-induced toxicity” (Communications Biology, 2021).
